Here are results for 5 compounds from PMC6476273, “Engineering a Model Cell for Rational Tuning of GPCR Signaling” (Cell, 2019).

pEC50: −log10 of the molar value. Like-named read-outs stand apart in the source and are kept apart here. Ends that are not written are not given here.

Assay [1] addresses T1, human A2BR receptor (Homo sapiens, UniProt P29275).
T1 sequence (P29275 1-332): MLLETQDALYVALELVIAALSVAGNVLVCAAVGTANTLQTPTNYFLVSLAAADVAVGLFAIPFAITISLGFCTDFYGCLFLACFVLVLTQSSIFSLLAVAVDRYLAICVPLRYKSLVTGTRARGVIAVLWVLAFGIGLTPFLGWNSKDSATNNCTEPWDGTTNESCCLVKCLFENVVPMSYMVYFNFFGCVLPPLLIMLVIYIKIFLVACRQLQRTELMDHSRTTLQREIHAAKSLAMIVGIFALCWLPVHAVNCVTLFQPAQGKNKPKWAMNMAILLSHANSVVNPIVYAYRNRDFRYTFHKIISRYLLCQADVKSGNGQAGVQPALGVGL
T1 sequence (P08539 2-472 partner): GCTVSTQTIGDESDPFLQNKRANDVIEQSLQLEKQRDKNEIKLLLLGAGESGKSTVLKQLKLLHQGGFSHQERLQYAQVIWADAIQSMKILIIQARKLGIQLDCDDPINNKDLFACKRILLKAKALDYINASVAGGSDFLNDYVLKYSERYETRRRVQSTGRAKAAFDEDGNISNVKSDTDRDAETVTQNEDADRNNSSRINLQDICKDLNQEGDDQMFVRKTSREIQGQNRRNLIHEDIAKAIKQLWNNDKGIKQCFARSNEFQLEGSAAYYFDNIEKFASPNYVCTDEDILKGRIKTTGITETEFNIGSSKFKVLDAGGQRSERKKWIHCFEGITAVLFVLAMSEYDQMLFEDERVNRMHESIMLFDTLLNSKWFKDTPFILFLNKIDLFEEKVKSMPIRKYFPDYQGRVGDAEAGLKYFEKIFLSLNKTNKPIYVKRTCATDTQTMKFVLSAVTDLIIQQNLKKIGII
The assay can be described thus: Adenosine dose-response, A2BR single strain and three-strain consortium, sfGFP by plate reader. Format: cell-based. Conditions: for Hill slope: plate reader.

Assay [2] addresses T1, human A2BR receptor. As to the kind of experiment: Adenosine dose-response, A2BR sensor strain, sfGFP by flow cytometry. Format: cell-based. Conditions: Fig S6C, wild-type Gpa1, triplicate isolates. (A flow cytometer gives signals particle by particle.)
For assay [3], the target named is T2, human MTNR1A receptor (Homo sapiens, UniProt P48039).
The target in assay [4] is T2, human MTNR1A receptor. Conditions: for Hill slope: plate reader.
The next assay addresses T3, Mam2 receptor (Schizosaccharomyces pombe, UniProt Q00619).
T3 construct: expressed in transfected cells; host or cells: Saccharomyces cerevisiae yWS677 (BY4741 derivative), chromosomally integrated YTK cassette
T3 sequence (Q00619 1-348): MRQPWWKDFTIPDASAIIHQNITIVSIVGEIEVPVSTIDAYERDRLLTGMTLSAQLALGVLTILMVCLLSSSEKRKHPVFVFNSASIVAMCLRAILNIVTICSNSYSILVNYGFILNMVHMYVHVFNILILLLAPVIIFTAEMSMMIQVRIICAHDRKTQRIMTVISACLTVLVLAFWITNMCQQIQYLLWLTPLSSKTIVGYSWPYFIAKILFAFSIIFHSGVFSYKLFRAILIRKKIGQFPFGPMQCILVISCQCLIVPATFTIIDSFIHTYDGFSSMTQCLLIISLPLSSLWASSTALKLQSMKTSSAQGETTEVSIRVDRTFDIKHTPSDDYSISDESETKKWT
The assay can be described thus: P-factor dose-response, Mam2 sensor strain in yWS677, sfGFP by flow cytometry. Format: cell-based.

Assay [5] concerns P. brasiliensis Ste2 homolog (PbSte2). As to the kind of experiment: PbPeptide dose-response, PbSte2 sensor single cell and two-cell amplifier-receiver consortium, GFP by plate reader. Format: cell-based, Paracoccidioides brasiliensis. An excerpt:
For pathogen detection, we next set out to tune a point-of-care sensor for Paracoccidioides brasiliensis, recently developed by [Ostrov et al. (2017)]. This yeast GPCR-based sensor, utilizing the Ste2 homolog from P. brasiliensis (PbSte2), detects environmental levels of pheromone peptide released by haploid P. brasiliensis cells (PbPeptide) as a means of specifically detecting this human pathogen in complex samples (Figure 6E). […] To optimize these two properties, we applied our amplifier-receiver two strain approach to the PbSte2 sensor (Figures 6F–6H).

Assay [6] shares this test system. Conditions: PbSte2 in S. cerevisiae; ref Ostrov et al., 2017; cited from earlier work. The text has this: (D) The ... || For pathogen detection, we next set out to tune a point-of-care sensor for Paracoccidioides brasiliensis, recently developed by [Ostrov et al. (2017)]. This yeast GPCR-based sensor, utilizing the Ste2 homolog from P. brasiliensis (PbSte2), detects environmental levels of pheromone peptide released by haploid P. brasiliensis cells (PbPeptide) as a means of specifically detecting this human pathogen in complex samples (Figure 6E).

The test system of the next assay is Ste2. As to the kind of experiment: α-factor dose-response of pheromone response pathway strains, sfGFP by flow cytometry. Format: cell-based, Saccharomyces cerevisiae.
[7] abbreviates: three-strain consortium 1:1:1 vs initial response.

T2 sequence (P48039 whole entry, one chain of several): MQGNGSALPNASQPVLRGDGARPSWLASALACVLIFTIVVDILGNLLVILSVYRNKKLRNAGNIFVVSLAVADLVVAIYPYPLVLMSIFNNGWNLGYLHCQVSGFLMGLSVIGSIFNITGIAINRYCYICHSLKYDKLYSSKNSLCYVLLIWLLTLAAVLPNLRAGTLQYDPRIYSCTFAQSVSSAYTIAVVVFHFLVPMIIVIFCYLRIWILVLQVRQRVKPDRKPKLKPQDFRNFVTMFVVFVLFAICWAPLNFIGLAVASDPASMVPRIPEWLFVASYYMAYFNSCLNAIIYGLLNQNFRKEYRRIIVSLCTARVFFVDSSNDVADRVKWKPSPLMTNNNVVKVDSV

The Hill slope is the slope factor of the fitted curve. As for `Nc1ncnc2c1ncn2[C@@H]1O[C@H](CO)[C@@H](O)[C@H]1O` [Adenosine], the Hill slope on human A2BR receptor [1] (Fig 5B, single pop.) was 1.41 ± 0.10; at human A2BR receptor [1] (Fig 5C, mixed pop. of three strains 1:1:1), 0.78 ± 0.02; at human A2BR receptor [2], 1.32 ± 0.08. In addition, the operational range on human A2BR receptor [1] (Fig 5B, single pop., span between 5% and 95% of the activated response) was 1.56 ± 0.07 orders of magnitude; at human A2BR receptor [1] (Fig 5C legend, consortia of three engineered strains), 3.3 orders of magnitude; on human A2BR receptor [1] (Fig 5C, mixed pop. of three strains 1:1:1, span between 5% and 95% of the activated response), 3.27 ± 0.08 orders of magnitude. Further, the “change in Hill slope” value at human A2BR receptor [1] (setting [7]) is recorded as “almost halved the Hill slope”. At human A2BR receptor [1] (setting [7]), the “increase in operational range” value is 50 -fold.

As for `COc1ccc2[nH]cc(CCNC(C)=O)c2c1` [Melatonin], the Hill slope is reported as 0.80 ± 0.04 on human MTNR1A receptor [3] (Fig S6D, MTNR1A sensor strain, wild-type Gpa1, flow cytometry, triplicate isolates); 0.69 ± 0.03 at human MTNR1A receptor [4] (Fig 5F, single pop.); 1.65 ± 0.06 at human MTNR1A receptor [4] (Fig 5G, mixed pop., tuned two-strain system 1:1). For the same compound, on human MTNR1A receptor [3] (two-strain consortia, Fig 6B), the “linear range of dose-response” value is reported as “four”. Besides, the “operational range” value is reported as 3.8 orders of magnitude at human MTNR1A receptor [4] (Fig 5F legend, single population); 3.79 ± 0.15 orders of magnitude at human MTNR1A receptor [4] (Fig 5F, single pop., span between 5% and 95% of the activated response); 1.48 ± 0.19 orders of magnitude on human MTNR1A receptor [4] (Fig 5G, mixed pop., two-strain system, span between 5% and 95% of the activated response).

Usually pEC50 stands for the negative decadic logarithm of the EC50, by convention in mol/L. High values mean a small EC50, low ones a large EC50. In turn, TYADFLRAYQSWNTFVNPDRPNL [P-factor] had a negative logarithm of the EC50 (pEC50) on Mam2 receptor (Fig 4D, Mam2 - yWS677, 4 h induction, 1 % DMSO, SC medium, 30°C, sfGFP flow cytometry, mean ± SD, triplicate isolates) of 6.93. Further, the “potency (EC50) compared with native S. pombe response” value at Mam2 receptor (Mam2 sensor strain vs S. pombe (Croft et al., 2013)) is on record as “identical potency (EC50)”.

Regarding WCTRPGQGC [PbPeptide], the detection range entry in assay [5] (CCW12 promoter and signal amplification, two-strain consortia) is “picomolar range”. Besides, the “narrowing of operational range” value in assay [5] (amplifier-receiver two strain consortia) was 1,000 -fold. Also, the sensitivity result in assay [6] is on record as “nanomolar sensitivity”.

“WHWLQLKPGQPMY [α-factor, S. cerevisiae peptide pheromone, ligand of Ste2]”: in the assay on Ste2 (Design 4 strain with 2x and 3x Ste2 (pCCW12), Fig S4H), the “activation at 100 pM ɑ-factor on Ste2 overexpression” value is “unchanged”. Also, the “sensitivity and signal output compared with BY4741” value in the assay on Ste2 (Quasi-WT strain, FUS1 promoter-sfGFP) was “substantial increase in sensitivity and signal output”. Also, in the assay with Ste2 (design 3 strain (Gpa1 by PGK1, Ste2 by pCCW12), Fig 4A-B), the “sensitivity compared with Quasi-WT” value is “approached the sensitivity of the Quasi-WT strain”.
